According to patent US20090203718A1, “CANCER TREATMENT METHOD” (SmithKline Beecham (Cork) Ltd., priority 2006, published 2009):

Legend:
Type in all cases: cell-based, human
A549 cells [1] = assay: Apoptosis, Roche Cell Death ELISA and Caspase-3/7 (FIG. 1); conditions: for apoptosis: agent alone, 24 h
Experimental: (§1) A549 cells were grown in RPMI-1640 supplemented with 25 mM HEPES, 10 mM glutamine and 10% fetal bovine serum and maintained at 37° C. and 5% CO2 in a humid incubator. Colo205 and MDA-MB-468 cells were grown in DMEM supplemented with 25 mM HEPES, 10 mM glutamine, 4.5 g/L d-glucose, and 10% fetal bovine serum. Assays were performed in 96 well microtiter plates with optimum seeding densities for each cell line.
(§2) Apoptosis was measured using the Roche Cell Death ELISA^Plus kit (catalog 1 774 425) which detects fragmented nucleosomal DNA that is generated during apoptosis.
(§3) Cell death was measured using the Roche Cell Death ELISA^Plus kit and Promega Apo-ONE™ Homogeneous Caspase-3/7 Assay. Total cell number was measured using the Celltiter Glo® Luminescent Cell Viability Assay and cell proliferation was measured with the Roche BrdU Cell Proliferation ELISA assay.

Colo205 cells [2] = assay: Apoptosis, Roche Cell Death ELISA and Caspase-3/7 (FIG. 2); conditions: for apoptosis: agent alone, 24 h
Experimental: as §1, §2, §3

MDA-MB-468 cells [3] = assay: Apoptosis, Roche Cell Death ELISA and Caspase-3/7 (FIG. 3); conditions: for apoptosis: agent alone, 24 h
Experimental: as §1, §2, §3

A549 cells [4] = assay: Cell proliferation, BrdU ELISA and Celltiter Glo (FIG. 1)
Colo205 cells [5] = assay: Cell proliferation, BrdU ELISA and Celltiter Glo (FIG. 2)
Experimental: (§4) Colo205 and MDA-MB-468 cells were grown in DMEM supplemented with 25 mM HEPES, 10 mM glutamine, 4.5 g/L d-glucose, and 10% fetal bovine serum. Assays were performed in 96 well microtiter plates with optimum seeding densities for each cell line.
(§5) Cell proliferation was measured using the Celltiter Glo® Luminescent Cell Viability Assay available from Promega Corporation and the Roche BrdU Cell Proliferation ELISA assay.
as §3

MDA-MB-468 cells [6] = assay: Cell proliferation, BrdU ELISA and Celltiter Glo (FIG. 3)
Experimental: as §4, §5, §3

[7] = 1:1 molar ratio with GW572016, 24 h

| Compound | apoptosis (A549 cells [1]) | apoptosis (Colo205 cells [2]) | apoptosis (MDA-MB-468 cells [3]) | cell proliferation, combination versus either agent alone (A549 cells [4]; [7]) | cell proliferation (A549 cells [4]; agent alone, 24 h) | apoptosis, combination versus either agent alone (A549 cells [1]; [7]) | cell proliferation, combination versus either agent alone (Colo205 cells [5]; [7]) | cell proliferation (Colo205 cells [5]; agent alone, 24 h) | apoptosis, combination versus either agent alone (Colo205 cells [2]; [7]) | cell proliferation, combination versus either agent alone (MDA-MB-468 cells [6]; [7]) | cell proliferation (MDA-MB-468 cells [6]; agent alone, 24 h) | apoptosis, combination versus either agent alone (MDA-MB-468 cells [3]; [7]) |
| --- | --- | --- | --- | --- | --- | --- | --- | --- | --- | --- | --- | --- |
| CS(=O)(=O)CCNCc1ccc(-c2ccc3ncnc(Nc4ccc(OCc5cccc(F)c5)c(Cl)c4)c3c2)o1 [GW572016, N-{3-Chloro-4-[(3-fluorobenzyl)oxy]phenyl}-6-[5-({[2-(methanesulphonyl)ethyl]amino}methyl)-2-furyl]-4-quinazolinamine ditosylate monohydrate] | increased apoptosis | increased apoptosis | increased apoptosis |  |  |  |  |  |  |  |  |  |
| Nc1ncnc2c1c(-c1cccc(OCc3ccccc3)c1)cn2[C@H]1C[C@@H](CN2CCCC2)C1 [GSK621659A] | increased apoptosis | increased apoptosis | increased apoptosis | more effective than either agent alone | decreased cell proliferation | more effective than either agent alone | more effective than either agent alone | decreased cell proliferation | more effective than either agent alone | more effective than either agent alone | decreased cell proliferation | more effective than either agent alone |
